Source: patent publication US12280072B2, “Oligosaccharide compound for inhibiting intrinsic coagulation factor X-enzyme complex, and preparation method therefor and uses thereof” (Jiuzhitang Co., Ltd., priority 2017, dated 2025)
pIC50: −log10 of the molar value. Read-outs that look alike come from different tables or passages of the source.

Experiments:
Type in all cases: biochemical
FXa (Homo sapiens) = biological target: T1, FXa (Homo sapiens); assay: AT-dependent Xa inhibitory activity assay
T1 construct: 8 μg/mL FXa solution; purchased
Protocol: AT-dependent Xa inhibitory activity assay: Heparin […] kit was used for detection. To a 96-well plate, 30 μL of sample, control solution or Tris-HCl buffer (negative control) was added, then 30 μL of 1 IU/mL AT solution was added, mixed well and incubated at 37° C. for 1 min; and than 30 μL of 8 μg/mL FXa solution was added, mixed well and incubated at 37° C. for 1 min, then 30 μL of pre-warmed 1.25 mM Xa chromogenic substrate SXa-11 was added. OD405 was detected by a microplate reader.
(§1) Data processing: The average value of OD405 detected by the duplicated well was used as the detection value of the test sample and the reference of each concentration, and the slope of the linear fit between the detected value to the time value (the change rate of the absorbance value OD405/min) indicated enzymatic activity of coagulation factor. Taking the clotting factor activity of the negative control well as 100%, coagulation factor activity (percentage) in the presence of the test sample was calculated. The coagulation factor activity in the presence of the test sample was plotted against the concentration of the test sample, and fitted according to the following formula, to calculate the IC50 value: B=(IC50)^n/{(IC50)^n+[I]^n}
(§2) in the formula, B is the coagulation factor activity (percentage) in the presence of the test sample, [I] is the concentration of the test sample, IC50 is the half inhibitory concentration (concentration of the test sample required to inhibit 50% of the activity), and n is the Hill coefficient. • (4) Effect on surface activation and platelet activity: […]

intrinsic factor Xase = biological target: T2, intrinsic factor Xase (Homo sapiens, UniProt P00740); assay: Xase inhibitory activity assay; conditions: for IC50: read-out: Drug concentration required to inhibit 50% of coagulation factor activity (IC50, ng/mL) Xase (converted); for pIC50: read-out: Drug concentration required to inhibit 50% of coagulation factor activity (IC50, ng/mL) Xase
T2 construct: 60 nM FIXa; purchased
Protocol: Xase inhibitory activity assay: Detection was performed according to kit instructions and literature methods by combining the Factor VIII and […]. Specifically, to each well of a 96-well plate, 30 μL of test solution, control solution, or Tris-HCl buffer (negative control) was added, and 30 μl of FVIII (2 IU/ml), 30 μl of R2 (60 nM FIXa, containing FIIa, PC/PS, Ca^2+) were sequentially added, mixed by shaking the plate, incubated at 37° C. for 2 min; and then 30 μL of R1 (50 nM FX, containing direct thrombin inhibitor) was added, mixed by shaking the plate, incubated at 37° C. for 1 min; and then 30 μL of R3 (FXa chromogenic substrate SXa-11, about 8.4 mM) was added. The absorbance at 405 nm (OD405) was detected with a microplate reader, continuously measuring for 7.5 min at a interval of 30 s. The Xase activity and IC50 value of Xase inhibition of the test sample were calculated based on the OD405 change value.
as §1, §2

plasma = assay: TT (thrombin time) clotting time
human-controlled plasma [1] = assay: Anticoagulant activity assay: PT clotting time
Protocol: (§3) 8.2 Methods • (1) Preparation of sample solution: Oligosaccharide compounds A1˜A8, B1˜B11 and oligosaccharide mixtures C1, D1, D2 were all dissolved in Tris-HCl buffer and diluted to the desired series of solubility. • (2) Anticoagulant activity assay: 90 μL of human-controlled plasma was added to the sample or 10 μL of the control solution, and then the clotting time (APTT and PT) was detected by the MC-4000 coagulometer according to the method described in the APTT and PT kit instructions. • (3) Coagulation factor inhibitory activity analysis: […]

FIIa (Homo sapiens) = biological target: T3, FIIa (Homo sapiens); assay: AT-dependent IIa inhibitory activity assay
T3 construct: antithrombin (i.e., active coagulation factor IIa); purchased
Protocol: AT-dependent IIa inhibitory activity assay: Heparin Anti-FIIa kit was used for detection. To a 96-well plate, 30 μL of sample, control solution or Tris-HCl buffer (negative control) was added, and then 30 μL of 1 IU/mL AT solution was added, mixed well by shaking the plate and incubated at 37° C. for 2 min; 30 μL of 24 IU/mL FIIa solution was added, mixed well by shaking the plate and incubated for 2 min at 37° C., and then 30 μL of pre-warmed 1.25 mM FIIa specific chromogenic substrate CS-01 (38) was added, mixed well by shaking the plate. The OD405 was detected by a microplate reader and the IC50 value of FIIa inhibition of each sample was calculated.
as §1, §2

human-controlled plasma [2] = assay: Anticoagulant activity assay: APTT clotting time
Protocol: as §3

[3] = in presence of AT; read-out: Drug concentration required to inhibit 50% of coagulation factor activity (IC50, ng/mL) Xa (AT)
[4] = in presence of AT; read-out: Drug concentration required to inhibit 50% of coagulation factor activity (IC50, ng/mL) Ha (AT)
[5] = read-out: Drug concentration required to inhibit 50% of coagulation factor activity (IC50, ng/mL) Xa (AT); in presence of AT
[6] = read-out: Drug concentration required to inhibit 50% of coagulation factor activity (IC50, ng/mL) Ha (AT); in presence of AT

T2 sequence (P00740 47-191 limits assumed): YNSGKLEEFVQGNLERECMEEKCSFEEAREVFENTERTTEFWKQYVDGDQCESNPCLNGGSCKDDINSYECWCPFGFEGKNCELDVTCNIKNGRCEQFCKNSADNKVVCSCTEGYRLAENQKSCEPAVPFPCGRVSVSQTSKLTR
T2 sequence (P00740 227-461 limits assumed): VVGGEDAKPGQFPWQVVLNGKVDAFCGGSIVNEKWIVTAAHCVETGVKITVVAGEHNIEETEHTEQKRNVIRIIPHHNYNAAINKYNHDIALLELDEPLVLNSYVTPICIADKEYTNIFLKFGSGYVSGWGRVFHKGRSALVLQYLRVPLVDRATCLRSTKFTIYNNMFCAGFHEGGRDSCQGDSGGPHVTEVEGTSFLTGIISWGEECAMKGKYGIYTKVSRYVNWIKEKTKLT
T1 sequence (P01008 33-464): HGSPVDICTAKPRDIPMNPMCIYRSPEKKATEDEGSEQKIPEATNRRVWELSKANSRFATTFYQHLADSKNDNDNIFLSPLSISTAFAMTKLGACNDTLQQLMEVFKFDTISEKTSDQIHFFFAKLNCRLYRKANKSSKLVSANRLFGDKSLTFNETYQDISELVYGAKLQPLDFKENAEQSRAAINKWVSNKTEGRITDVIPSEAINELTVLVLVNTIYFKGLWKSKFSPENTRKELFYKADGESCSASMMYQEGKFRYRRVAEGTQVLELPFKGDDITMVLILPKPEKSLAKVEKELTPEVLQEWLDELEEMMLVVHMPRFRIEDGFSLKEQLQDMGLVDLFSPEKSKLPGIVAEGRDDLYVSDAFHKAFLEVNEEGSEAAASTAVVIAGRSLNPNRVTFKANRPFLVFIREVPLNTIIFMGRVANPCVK
T3 sequence (P01008 33-464): as above

CC(=O)NC(CO)C(OC1OC(C(=O)O)C(OC2OC(COS(=O)(=O)O)C(OS(=O)(=O)O)C(OC3OC(C(=O)O)C(OC4OC(COS(=O)(=O)O)C(OS(=O)(=O)O)C(OC5OC(C(=O)O)C(OC6OC(COS(=O)(=O)O)C(OS(=O)(=O)O)C(OC7OC(C(=O)O)C(OC8OC(COS(=O)(=O)O)C(OS(=O)(=O)O)C(OC9OC(C(=O)O)C(OC%10OC(COS(=O)(=O)O)C(OS(=O)(=O)O)C(OC%11OC(C(=O)O)=CC(OC%12OC(C)C(OS(=O)(=O)O)C(O)C%12OS(=O)(=O)O)C%11O)C%10NC(C)=O)C(OC%10OC(C)C(OS(=O)(=O)O)C(O)C%10OS(=O)(=O)O)C9O)C8NC(C)=O)C(OC8OC(C)C(OS(=O)(=O)O)C(O)C8OS(=O)(=O)O)C7O)C6NC(C)=O)C(OC6OC(C)C(OS(=O)(=O)O)C(O)C6OS(=O)(=O)O)C5O)C4NC(C)=O)C(OC4OC(C)C(OS(=O)(=O)O)C(O)C4OS(=O)(=O)O)C3O)C2NC(C)=O)C(OC2OC(C)C(OS(=O)(=O)O)C(O)C2OS(=O)(=O)O)C1O)C(OS(=O)(=O)O)C(O)COS(=O)(=O)O [Compound A5, L-Fuc2S4S-(α1,3)-ΔUA-(α1,3)-{D-GaNAc4S6S-(β1,4)-[L-Fuc2S4S-(α1,3)]-D-GlcA-(β1,3)}n+1-D-GalNAc4S6S-ol]
pIC50 (FXa (Homo sapiens); [3]): < 6.01
IC50 (intrinsic factor Xase): 0.00465 µM
Drug concentration required for multiplication of coagulation time (μg/mL) TT (plasma): # (>128 μg/mL)
Drug concentration required for multiplication of coagulation time (μg/mL) PT (human-controlled plasma [1]): # (>128 μg/mL)
pIC50 (FIIa (Homo sapiens); [4]): < 6.01
Drug concentration required for multiplication of coagulation time (μg/mL) APTT (human-controlled plasma [2]): 3.9 µg/mL

CC(=O)NC1C(OC2C(C(=O)O)OC(OC3C(NC(C)=O)C(OC4C(C(=O)O)OC(OC5C(NC(C)=O)C(OC6C(C(=O)O)OC(OC7C(NC(C)=O)C(OC8C(C(=O)O)OC(OC9C(NC(C)=O)C(OC(C(O)C(=O)O)C(OC%10OC(C)C(OS(=O)(=O)O)C(OS(=O)(=O)O)C%10O)C(O)CO)OC(COS(=O)(=O)O)C9OS(=O)(=O)O)C(O)C8OC8OC(C)C(OS(=O)(=O)O)C(OS(=O)(=O)O)C8O)OC(COS(=O)(=O)O)C7OS(=O)(=O)O)C(O)C6OC6OC(C)C(OS(=O)(=O)O)C(OS(=O)(=O)O)C6O)OC(COS(=O)(=O)O)C5OS(=O)(=O)O)C(O)C4OC4OC(C)C(OS(=O)(=O)O)C(OS(=O)(=O)O)C4O)OC(COS(=O)(=O)O)C3OS(=O)(=O)O)C(O)C2OC2OC(C)C(OS(=O)(=O)O)C(OS(=O)(=O)O)C2O)OC(COS(=O)(=O)O)C(OS(=O)(=O)O)C1OC1OC(C(=O)O)=CC(OC2OC(C)C(OS(=O)(=O)O)C(OS(=O)(=O)O)C2O)C1O [Compound B5, L-Fuc3S4S-(α1,3)-L-ΔUA-(α1,3)-{D-GalNAc4S6S-(β1,4)-[L-Fuc3S4S-(α1,3)]-D-GlcA-(β1,3)}˜-D-GalNAc4S6S-(β1,4)-[L-Fuc3S4S-(α1,3)]-D-GlcA-ol]
pIC50 (FXa (Homo sapiens); [5]): < 5.97
pIC50 (intrinsic factor Xase): 8.38
Drug concentration required for multiplication of coagulation time (μg/mL) TT (plasma): # (>128 μg/mL)
Drug concentration required for multiplication of coagulation time (μg/mL) PT (human-controlled plasma [1]): # (>128 μg/mL)
pIC50 (FIIa (Homo sapiens); [6]): < 5.97
Drug concentration required for multiplication of coagulation time (μg/mL) APTT (human-controlled plasma [2]): 4.0 µg/mL

CC(=O)NC1C(OC2C(C(=O)O)OC(OC3C(NC(C)=O)C(OC4C(C(=O)O)OC(OC5C(NC(C)=O)C(OC6C(C(=O)O)OC(OC7C(NC(C)=O)C(OC(C(O)C(=O)O)C(OC8OC(C)C(OS(=O)(=O)O)C(OS(=O)(=O)O)C8O)C(O)CO)OC(COS(=O)(=O)O)C7OS(=O)(=O)O)C(O)C6OC6OC(C)C(OS(=O)(=O)O)C(OS(=O)(=O)O)C6O)OC(COS(=O)(=O)O)C5OS(=O)(=O)O)C(O)C4OC4OC(C)C(OS(=O)(=O)O)C(OS(=O)(=O)O)C4O)OC(COS(=O)(=O)O)C3OS(=O)(=O)O)C(O)C2OC2OC(C)C(OS(=O)(=O)O)C(OS(=O)(=O)O)C2O)OC(COS(=O)(=O)O)C(OS(=O)(=O)O)C1OC1OC(C(=O)O)=CC(OC2OC(C)C(OS(=O)(=O)O)C(OS(=O)(=O)O)C2O)C1O [Compound B4, L-Fuc3S4S-(α1,3)-L-ΔUA-(α1,3)-{D-GalNAc4S6S-(β1,4)-[L-Fuc3S4S-(α1,3)]-D-GlcA-(β1,3)}˜-D-GalNAc4S6S-(β1,4)-[L-Fuc3S4S-(α1,3)]-D-GlcA-ol]
pIC50 (FXa (Homo sapiens); [5]): < 5.89
pIC50 (intrinsic factor Xase): 8.27
Drug concentration required for multiplication of coagulation time (μg/mL) TT (plasma): # (>128 μg/mL)
Drug concentration required for multiplication of coagulation time (μg/mL) PT (human-controlled plasma [1]): # (>128 μg/mL)
pIC50 (FIIa (Homo sapiens); [6]): < 5.89
Drug concentration required for multiplication of coagulation time (μg/mL) APTT (human-controlled plasma [2]): 4.5 µg/mL

CC(=O)NC(CO)C(OC1OC(C(=O)O)C(OC2OC(COS(=O)(=O)O)C(OS(=O)(=O)O)C(OC3OC(C(=O)O)C(OC4OC(COS(=O)(=O)O)C(OS(=O)(=O)O)C(OC5OC(C(=O)O)C(OC6OC(COS(=O)(=O)O)C(OS(=O)(=O)O)C(OC7OC(C(=O)O)C(OC8OC(COS(=O)(=O)O)C(OS(=O)(=O)O)C(OC9OC(C(=O)O)=CC(OC%10OC(C)C(OS(=O)(=O)O)C(O)C%10OS(=O)(=O)O)C9O)C8NC(C)=O)C(OC8OC(C)C(OS(=O)(=O)O)C(O)C8OS(=O)(=O)O)C7O)C6NC(C)=O)C(OC6OC(C)C(OS(=O)(=O)O)C(O)C6OS(=O)(=O)O)C5O)C4NC(C)=O)C(OC4OC(C)C(OS(=O)(=O)O)C(O)C4OS(=O)(=O)O)C3O)C2NC(C)=O)C(OC2OC(C)C(OS(=O)(=O)O)C(O)C2OS(=O)(=O)O)C1O)C(OS(=O)(=O)O)C(O)COS(=O)(=O)O [Compound A4, L-Fuc2S4S-(α1,3)-ΔUA-(α1,3)-{D-GaNAc4S6S-(β1,4)-[L-Fuc2S4S-(α1,3)]-D-GlcA-(β1,3)}n+1-D-GalNAc4S6S-ol]
pIC50 (FXa (Homo sapiens); [3]): < 5.93
IC50 (intrinsic factor Xase): 0.00667 µM
Drug concentration required for multiplication of coagulation time (μg/mL) TT (plasma): # (>128 μg/mL)
Drug concentration required for multiplication of coagulation time (μg/mL) PT (human-controlled plasma [1]): # (>128 μg/mL)
pIC50 (FIIa (Homo sapiens); [4]): < 5.93
Drug concentration required for multiplication of coagulation time (μg/mL) APTT (human-controlled plasma [2]): 5.3 µg/mL

CC(=O)NC1C(OC2C(C(=O)O)OC(OC3C(NC(C)=O)C(OC4C(C(=O)O)OC(OC5C(NC(C)=O)C(OC(C(O)C(=O)O)C(OC6OC(C)C(OS(=O)(=O)O)C(OS(=O)(=O)O)C6O)C(O)CO)OC(COS(=O)(=O)O)C5OS(=O)(=O)O)C(O)C4OC4OC(C)C(OS(=O)(=O)O)C(OS(=O)(=O)O)C4O)OC(COS(=O)(=O)O)C3OS(=O)(=O)O)C(O)C2OC2OC(C)C(OS(=O)(=O)O)C(OS(=O)(=O)O)C2O)OC(COS(=O)(=O)O)C(OS(=O)(=O)O)C1OC1OC(C(=O)O)=CC(OC2OC(C)C(OS(=O)(=O)O)C(OS(=O)(=O)O)C2O)C1O [Compound B3, L-Fuc3S4S-(α1,3)-L-ΔUA-(α1,3)-{D-GalNAc4S6S-(β1,4)-[L-Fuc3S4S-(α1,3)]-D-GlcA-(β1,3)}˜-D-GalNAc4S6S-(β1,4)-[L-Fuc3S4S-(α1,3)]-D-GlcA-ol]
pIC50 (FXa (Homo sapiens); [3]): < 5.78
IC50 (intrinsic factor Xase): 0.0103 µM
Drug concentration required for multiplication of coagulation time (μg/mL) TT (plasma): # (>128 μg/mL)
Drug concentration required for multiplication of coagulation time (μg/mL) PT (human-controlled plasma [1]): # (>128 μg/mL)
pIC50 (FIIa (Homo sapiens); [4]): < 5.78
Drug concentration required for multiplication of coagulation time (μg/mL) APTT (human-controlled plasma [2]): 6.1 µg/mL
